The numbers were not newly measured in US8574562B2, “Microemulsion pharmaceutical composition comprising a macrolide immunosuppressant drug” (Novaliq GmbH, priority 2009, dated 2013), which cites them from elsewhere.

The conditions of data set [1]: methanol, ethanol, acetone, chloroform, ethyl acetate, diethyl ether.
For data set [2] the following is noted: relative to ciclosporin.
For data set [3] the following is noted: relative to ciclosporin. The source holds these as a separate data set.

Each structure is given as a SMILES string.

Regarding `C=CC[C@@H]1/C=C(\C)C[C@H](C)C[C@H](OC)[C@H]2O[C@@](O)(C(=O)C(=O)N3CCCC[C@H]3C(=O)O[C@H](/C(C)=C/[C@@H]3CC[C@@H](O)[C@H](OC)C3)[C@H](C)[C@@H](O)CC1=O)[C@H](C)C[C@@H]2OC` [Tacrolimus], the “solubility in organic solvents” value in data set [1] is on record as “soluble”. Moreover, in data set [2], the “immunosuppressive activity in vitro, higher than that of ciclosporin” value was 50-100 times. For the same molecule, the “immunosuppressive activity in vivo, higher than that of ciclosporin” value in data set [3] is listed as 10-20 times.
